What was measured:
Format in all cases: in vivo
[1] = system: ryegrass, Italian (Lolium multiflorum); assay: Test A postemergence, Italian ryegrass; conditions: visual injury, 0 to 100 scale (0 no effect, 100 complete control), approximately 10 days
How it was run: (§1)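 Visual injury scores (0 no effect to 100 complete control) taken about 10 days after treatment, relative to untreated plants. Treatments were directed soil spray at planting for preemergence, or foliar application to one- to two-leaf plants (2-10 cm) for postemergence, with surfactant-containing formulations in loam–sand pots.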

[2] = system: kochia (Kochia scoparia); assay: Test A postemergence, kochia; conditions: visual injury, 0 to 100 scale (0 no effect, 100 complete control), approximately 10 days
How it was run: as §1

[3] = system: galium (catchweed bedstraw, Galium aparine); assay: Test A postemergence, galium; conditions: visual injury, 0 to 100 scale (0 no effect, 100 complete control), approximately 10 days
How it was run: as §1

[4] = system: barnyardgrass (Echinochloa crus-galli); assay: Test A preemergence, barnyardgrass; conditions: 0 to 100 scale (0 no effect, 100 complete control)
How it was run: as §1

[5] = system: foxtail, giant (Setaria faberii); assay: Test A postemergence, giant foxtail; conditions: visual injury, 0 to 100 scale (0 no effect, 100 complete control), approximately 10 days
How it was run: as §1

[6] = system: sedge, umbrella (small-flower umbrella sedge, Cyperus difformis); assay: Test B flooded paddy test, umbrella sedge; conditions: applied to paddy water, visual rating after 13 to 15 days, scale 0 (no effect) to 100 (complete control)
How it was run: (§2)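 Test compounds are applied straight into paddy water held 3 cm above the soil surface, with that flood maintained for the whole test. After 13 to 15 days in the greenhouse, each species is scored visually relative to controls.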

[7] = system: barnyardgrass (Echinochloa crus-galli); assay: Test A postemergence, barnyardgrass; conditions: visual injury, 0 to 100 scale (0 no effect, 100 complete control), approximately 10 days
How it was run: as §1

[8] = system: ryegrass, Italian (Lolium multiflorum); assay: Test A preemergence, Italian ryegrass; conditions: 0 to 100 scale (0 no effect, 100 complete control)
How it was run: as §1

[9] = system: rice (Oryza sativa); assay: Test B flooded paddy test, rice; conditions: applied to paddy water, visual rating after 13 to 15 days, scale 0 (no effect) to 100 (complete control)
How it was run: as §2

[10] = system: ducksalad (Heteranthera limosa); assay: Test B flooded paddy test, ducksalad; conditions: applied to paddy water, visual rating after 13 to 15 days, scale 0 (no effect) to 100 (complete control)
How it was run: as §2

[11] = system: wheat (Triticum aestivum); assay: Test A postemergence, wheat; conditions: visual injury, 0 to 100 scale (0 no effect, 100 complete control), approximately 10 days
How it was run: as §1

[12] = system: pigweed (Amaranthus retroflexus); assay: Test A preemergence, pigweed; conditions: 0 to 100 scale (0 no effect, 100 complete control)
How it was run: as §1

[13] = system: foxtail, giant (Setaria faberii); assay: Test A preemergence, giant foxtail; conditions: 0 to 100 scale (0 no effect, 100 complete control)
How it was run: as §1

[14] = system: pigweed (Amaranthus retroflexus); assay: Test A postemergence, pigweed; conditions: visual injury, 0 to 100 scale (0 no effect, 100 complete control), approximately 10 days
How it was run: as §1

[15] = system: barnyardgrass (Echinochloa crus-galli); assay: Test B flooded paddy test, barnyardgrass; conditions: applied to paddy water, visual rating after 13 to 15 days, scale 0 (no effect) to 100 (complete control)
How it was run: as §2

[16] = system: kochia (Kochia scoparia); assay: Test A preemergence, kochia; conditions: 0 to 100 scale (0 no effect, 100 complete control)
How it was run: as §1

[17] = system: ragweed (common ragweed, Ambrosia elatior); assay: Test A preemergence, ragweed; conditions: 0 to 100 scale (0 no effect, 100 complete control)
How it was run: as §1

[18] = system: corn (Zea mays); assay: Test A postemergence, corn; conditions: visual injury, 0 to 100 scale (0 no effect, 100 complete control), approximately 10 days
How it was run: as §1

[19] = system: ragweed (common ragweed, Ambrosia elatior); assay: Test A postemergence, ragweed; conditions: visual injury, 0 to 100 scale (0 no effect, 100 complete control), approximately 10 days
How it was run: as §1

[20] = system: blackgrass (Alopecurus myosuroides); assay: Test A postemergence, blackgrass; conditions: visual injury, 0 to 100 scale (0 no effect, 100 complete control), approximately 10 days
How it was run: as §1

SMILES	Plant response rating, Ryegrass, Italian ([1]; 125 g ai/ha)	Plant response rating, Ryegrass, Italian ([1]; 500 g ai/ha)	Plant response rating, Kochia ([2]; 125 g ai/ha)	Plant response rating, Kochia ([2]; 500 g ai/ha)	Plant response rating, Galium ([3]; 125 g ai/ha)	Plant response rating, Galium ([3]; 500 g ai/ha)	Plant response rating, Barnyardgrass ([4]; 125 g ai/ha)	Plant response rating, Barnyardgrass ([4]; 500 g ai/ha)	Plant response rating, Foxtail, Giant ([5]; 125 g ai/ha)	Plant response rating, Foxtail, Giant ([5]; 500 g ai/ha)	Plant response rating, Barnyardgrass ([7]; 125 g ai/ha)	Plant response rating, Barnyardgrass ([7]; 500 g ai/ha)	Plant response rating, Ryegrass, Italian ([8]; 125 g ai/ha)	Plant response rating, Ryegrass, Italian ([8]; 500 g ai/ha)	Plant response rating, Wheat ([11]; 125 g ai/ha)	Plant response rating, Wheat ([11]; 500 g ai/ha)	Plant response rating, Pigweed ([12]; 125 g ai/ha)	Plant response rating, Pigweed ([12]; 500 g ai/ha)	Plant response rating, Foxtail, Giant ([13]; 125 g ai/ha)	Plant response rating, Foxtail, Giant ([13]; 500 g ai/ha)	further results
O=C1NCC(c2cccc(OC(F)(F)C(F)OC(F)(F)F)c2)C1C(=O)Nc1ccccc1F (stereo not drawn) [Compound 40]	0	0	0	0	40	40	50	90	40	60	50	40	0	0	0	20	0	0	90	90	Plant response rating, Sedge, Umbrella (Flood) ([6]; 250 g ai/ha): 0; Plant response rating, Rice (Flood) ([9]; 250 g ai/ha): 0; Plant response rating, Ducksalad (Flood) ([10]; 250 g ai/ha): 70; Plant response rating, Pigweed ([14]; 125 g ai/ha): 0; Plant response rating, Pigweed ([14]; 500 g ai/ha): 0; Plant response rating, Barnyardgrass (Flood) ([15]; 250 g ai/ha): 20; Plant response rating, Kochia ([16]; 125 g ai/ha): 0; Plant response rating, Kochia ([16]; 500 g ai/ha): 90; Plant response rating, Ragweed ([17]; 125 g ai/ha): 0; Plant response rating, Ragweed ([17]; 500 g ai/ha): 20; Plant response rating, Corn ([18]; 125 g ai/ha): 0; Plant response rating, Corn ([18]; 500 g ai/ha): 0; Plant response rating, Ragweed ([19]; 125 g ai/ha): 0; Plant response rating, Ragweed ([19]; 500 g ai/ha): 0; Plant response rating, Blackgrass ([20]; 125 g ai/ha): 0; Plant response rating, Blackgrass ([20]; 500 g ai/ha): 30
CN1CC(c2cccc(OC(F)(F)C(F)OC(F)(F)F)c2)C(C(=O)Nc2ccccc2F)C1=O (stereo not drawn) [Compound 41]	0	20	20	60	40	60	20	90	50	70	50	50	20	60	0	40	70	90	80	90	Plant response rating, Sedge, Umbrella (Flood) ([6]; 250 g ai/ha): 0; Plant response rating, Rice (Flood) ([9]; 250 g ai/ha): 20; Plant response rating, Ducksalad (Flood) ([10]; 250 g ai/ha): 100; Plant response rating, Pigweed ([14]; 125 g ai/ha): 40; Plant response rating, Pigweed ([14]; 500 g ai/ha): 80; Plant response rating, Barnyardgrass (Flood) ([15]; 250 g ai/ha): 0; Plant response rating, Kochia ([16]; 125 g ai/ha): 30; Plant response rating, Kochia ([16]; 500 g ai/ha): 60; Plant response rating, Ragweed ([17]; 125 g ai/ha): 20; Plant response rating, Ragweed ([17]; 500 g ai/ha): 70; Plant response rating, Corn ([18]; 125 g ai/ha): 0; Plant response rating, Corn ([18]; 500 g ai/ha): 40; Plant response rating, Ragweed ([19]; 125 g ai/ha): 0; Plant response rating, Ragweed ([19]; 500 g ai/ha): 0; Plant response rating, Blackgrass ([20]; 125 g ai/ha): 0; Plant response rating, Blackgrass ([20]; 500 g ai/ha): 30
O=C1NCC(c2cccc(Oc3ccccn3)c2)C1C(=O)Nc1ccc(F)c(F)c1F (stereo not drawn) [Compound 42]	0	0	0	0	0	30	40	80	50	70	40	60	0	0	0	0	0	10	80	90	Plant response rating, Sedge, Umbrella (Flood) ([6]; 500 g ai/ha): 0; Plant response rating, Rice (Flood) ([9]; 500 g ai/ha): 0; Plant response rating, Ducksalad (Flood) ([10]; 500 g ai/ha): 80; Plant response rating, Pigweed ([14]; 125 g ai/ha): 0; Plant response rating, Pigweed ([14]; 500 g ai/ha): 0; Plant response rating, Barnyardgrass (Flood) ([15]; 500 g ai/ha): 0; Plant response rating, Kochia ([16]; 125 g ai/ha): 0; Plant response rating, Kochia ([16]; 500 g ai/ha): 0; Plant response rating, Ragweed ([17]; 125 g ai/ha): 0; Plant response rating, Ragweed ([17]; 500 g ai/ha): 0; Plant response rating, Corn ([18]; 125 g ai/ha): 0; Plant response rating, Corn ([18]; 500 g ai/ha): 0; Plant response rating, Ragweed ([19]; 125 g ai/ha): 0; Plant response rating, Ragweed ([19]; 500 g ai/ha): 0; Plant response rating, Blackgrass ([20]; 125 g ai/ha): 0; Plant response rating, Blackgrass ([20]; 500 g ai/ha): 0
CN1CC(c2cccc(OC(F)(F)C(F)OC(F)(F)F)c2)C(C(=O)Nc2cccc(F)c2F)C1=O (stereo not drawn) [Compound 48]	0	40	30	70	60	60	80	90	60	80	20	50	30	30	0	30	70	70	80	90	Plant response rating, Sedge, Umbrella (Flood) ([6]; 250 g ai/ha): 0; Plant response rating, Rice (Flood) ([9]; 250 g ai/ha): 0; Plant response rating, Ducksalad (Flood) ([10]; 250 g ai/ha): 80; Plant response rating, Pigweed ([14]; 125 g ai/ha): 60; Plant response rating, Pigweed ([14]; 500 g ai/ha): 90; Plant response rating, Barnyardgrass (Flood) ([15]; 250 g ai/ha): 0; Plant response rating, Kochia ([16]; 125 g ai/ha): 0; Plant response rating, Kochia ([16]; 500 g ai/ha): 20; Plant response rating, Ragweed ([17]; 125 g ai/ha): 0; Plant response rating, Ragweed ([17]; 500 g ai/ha): 0; Plant response rating, Corn ([18]; 125 g ai/ha): 0; Plant response rating, Corn ([18]; 500 g ai/ha): 40; Plant response rating, Ragweed ([19]; 125 g ai/ha): 0; Plant response rating, Ragweed ([19]; 500 g ai/ha): 0; Plant response rating, Blackgrass ([20]; 125 g ai/ha): 0; Plant response rating, Blackgrass ([20]; 500 g ai/ha): 0
CON=Cc1cccc(C2CN(C)C(=O)C2C(=O)Nc2ccccc2F)c1 (stereo not drawn) [Compound 53, N-(2-fluorophenyl)-4-[3-[(methoxyimino)methyl]phenyl]-1-methyl-2-oxo-3-pyrrolidinecarboxamide]	0	0	0	0	0	30	90	90	80	90	70	90	0	0	0	0	0	0	90	90	Plant response rating, Sedge, Umbrella (Flood) ([6]; 250 g ai/ha): 0; Plant response rating, Rice (Flood) ([9]; 250 g ai/ha): 0; Plant response rating, Ducksalad (Flood) ([10]; 250 g ai/ha): 70; Plant response rating, Pigweed ([14]; 125 g ai/ha): 0; Plant response rating, Pigweed ([14]; 500 g ai/ha): 0; Plant response rating, Barnyardgrass (Flood) ([15]; 250 g ai/ha): 30; Plant response rating, Kochia ([16]; 125 g ai/ha): 60; Plant response rating, Kochia ([16]; 500 g ai/ha): 70; Plant response rating, Ragweed ([17]; 125 g ai/ha): 0; Plant response rating, Ragweed ([17]; 500 g ai/ha): 0; Plant response rating, Corn ([18]; 125 g ai/ha): 0; Plant response rating, Corn ([18]; 500 g ai/ha): 0; Plant response rating, Ragweed ([19]; 125 g ai/ha): 0; Plant response rating, Ragweed ([19]; 500 g ai/ha): 0; Plant response rating, Blackgrass ([20]; 125 g ai/ha): 0; Plant response rating, Blackgrass ([20]; 500 g ai/ha): 20

From patent US10405547B2, “Substituted cyclic amides as herbicides” (FMC Corporation, priority 2015, dated 2019)
